# Laboratory results published in patent US20140328929A1, “Method of Preventing Acute Graft-Versus-Host Disease using Oral Beclomethasone Dipropionate” (Soligenix, Inc., priority 2011, published 2014).
# “Also recorded” adds a separate entry of the source.
# Assays:
# adrenal function = test: Cosyntropin stimulation test at approximately day 75 after transplantation; type: in vivo, human; conditions: 26 of the 30 participants tested in the BDP arm; no systemic glucocorticoid treatment; about day 75
# acute GVHD = test: Double-blind, randomized placebo-controlled phase II study of prophylactic oral BDP: efficacy and exploratory analyses; type: in vivo, human
# From the text: Patients who had allogeneic hematopoietic cell transplantation with marrow or growth factor-mobilized blood cells from HLA-A, -B, -C, -DRB1, and HLA-DQB1-allele matched or single-allele or antigen mismatched related or unrelated donors after a myeloablative conditioning regimen (>800 cGy total body irradiation [TBI] and cyclophosphamide or high-dose busulfan and cyclophosphamide) were eligible for this study. Patients who had transplantation with cord blood cells and those who were enrolled in studies that involved depletion of T cells from the graft or administration of T cell-depleting antibodies before transplantation were excluded. Patients with body weight <35 kg were also excluded because lower-dose formulations of the study drug were not available. All participants gave informed consent as documents with the use of forms approved by institutional review committees at the Fred Hutchinson Cancer Research Center and Hackensack University Medical Center.
# (§1) All participants received a standard regimen of methotrexate and tacrolimus after transplantation as prophylaxis against acute GVHD.[10] Methotrexate was given at 15 mg/m^2 on day 1 after HCT and 10 mg/m^2 on days 3, 6 and 11. […] Administration of the study drug began at the start of the conditioning regimen and continued through day 75 after transplantation. Patients who were not able to ingest the study drug because of mucositis continued their participation in the study. […] Institutional standards were used for antibacterial and antifungal prophylaxis.
# The primary pre specified endpoint of the study was development of acute GVHD with severity sufficient to require systemic immunosuppressive treatment on or before day 90 after transplantation such as: a) prednisone or its equivalent at a 1 mg/kg/day, b) systemic immunosuppressive agents other than those in the GVHD prophylactic regimen in lieu of high-dose glucocorticoids, or c) substitution of one calcineurin inhibitor for the other in the GVHD prophylactic regimen in order to treat overt GVHD. The following actions were not considered as an indication of acute GVHD with severity sufficient to require systemic immunosuppressive treatment: a) administration of high-dose glucocorticoids for indications other than acute GVHD, b) substitution of one calcineurin inhibitor for another in the GVHD prophylactic regimen in order to manage toxicity, c) increase in the dose of the calcineurin inhibitor originally prescribed for GVHD prophylaxis in order to suppress overt manifestations of acute GVHD. For purposes of the primary endpoint, extracorporeal photopheresis was considered as systemic immunosuppressive treatment, but administration of psoralen and UV irradiation was not.
# In the assessment of the acute GVHD index score, parenteral nutrition was employed as a surrogate for oral caloric intake less than 40% of requirements.
# For purposes of sample size estimation, we assumed that 60% of the participants in the placebo arm would require systemic glucocorticoid treatment for acute GVHD. […] Based on historical results from our center, we estimated a frequency of grade IIa GVHD at approximately 25%. […] An interim analysis was conducted after 69 patients were enrolled, with a plan to end the trial if the probability of rejecting the null hypothesis had been less than 33%. This criterion was not met, and the remaining patients were accrued as originally planned.
# The primary endpoint was analyzed as a binomial outcome with differences evaluated by the unadjusted x^2 test with stratification according to donor type (related vs. unrelated) and pretransplant risk category (chronic myeloid leukemia in chronic phase, refractory anemia without excess blasts or other hematologic malignancy in remission vs. more advanced malignancy). Other endpoints were evaluated by x^2 test, Student's t-test, Wilcoxon rank sum test or log-rank test as appropriate, with no adjustment to the computed significance level to account for the interim analysis. […]
# [1] = cited from earlier work
# [2] = Same phase II study: assessment of safety (adverse outcomes, gastrointestinal adverse events, bacteremia, mucositis); type: in vivo
# Method: as §1
# The primary endpoint was analyzed as a binomial outcome with differences evaluated by the unadjusted x^2 test with stratification according to donor type (related vs. unrelated) and pretransplant risk category (chronic myeloid leukemia in chronic phase, refractory anemia without excess blasts or other hematologic malignancy in remission vs. more advanced malignancy). Other endpoints were evaluated by x^2 test, Student's t-test, Wilcoxon rank sum test or log-rank test as appropriate, with no adjustment to the computed significance level to account for the interim analysis. Results were analyzed with data available as of Sep. 15, 2010.
# These included the hazards of cytomegalovirus and invasive yeast or mold infection, cGVHD, death without recurrent malignancy, recurrent malignancy, death from any cause, and the composite of death or recurrent malignancy. […] Other gastrointestinal adverse events occurred infrequently.
# GVHD, bacteremia and recurrent malignancy were the most frequent serious adverse events. Other serious adverse events occurred at frequencies <5%. […] For this reason, we evaluated the distribution of all bacteremia episodes. Because participants took the study drug until day 75 after transplantation and then stopped, we included all bacteremia episodes that occurred before day 103. […] We observed a single episode of Enterococcus bacteremia among the 46 participants in the placebo arm, on day 15 after transplantation.
# Time-to-first event analyses were used to evaluate the risks of bacteremia in the BDP arm compared to the placebo arm. Follow-up was censored at 103 days after HCT, 28 days after the end of study drug administration. The hazard ratios were 1.38 (95% CI 0.8-2.5) for any bacteremia, 1.32 (95% CI 0.7-2.5) for gram-positive bacteremia, and 5.24 (95% CI 0.7-41) for Enterococcus bacteremia.
# For this reason, we evaluated the severity of mucositis in the two arms for the 118 patients who had evaluations by an oral medicine specialist on at least one occasion after transplantation at the FHCRC.
# gastrointestinal GVHD = conditions: oral BDP plus 10 day course of prednisone (1 mg/kg/day) with 7 day taper; grade II gastrointestinal GVHD; cited from earlier work
# [3] = BDP >90% adherent group, N = 50
# [4] = BDP patients with ≧90% adherence
smiles,measurement,setting,value
"CCC(=O)OCC(=O)[C@@]1(OC(=O)CC)[C@@H](C)C[C@H]2[C@@H]3CCC4=CC(=O)C=C[C@]4(C)[C@@]3(Cl)[C@@H](O)C[C@@]21C [BDP, beclomethasone 17,21-dipropionate]",Abnormal adrenal function,adrenal function,87%
same,Systemic treatment for GVHD among BDP patients with ≧90% adherence,"acute GVHD; 50 BDP patients, 27 treated",54%
same,Cumulative Prednisone Dose through Day 75 Post HCT,"acute GVHD; BDP 50-90% adherent, number 34",2105 mg
same,Mean of the Average Dose (prednisone) through Day 75 Post HCT,"acute GVHD; BDP 50-90% adherent, number 34",28.7 mg
same,Cumulative Prednisone Dose through Day 75 Post HCT,"acute GVHD; BDP <50% adherent, number 8",2048 mg
same,Mean of the Average Dose (prednisone) through Day 75 Post HCT,"acute GVHD; BDP <50% adherent, number 8",29.2 mg
same,"Overall Mortality, N (%)",acute GVHD; [3],7 (14) N (%)
same,"Relapse, N (%)",acute GVHD; [3],9 (18) N (%)
same,Cumulative Prednisone Dose through Day 75 Post HCT,"acute GVHD; BDP >90% adherent, number 50",1145 mg
same,Mean of the Average Dose (prednisone) through Day 75 Post HCT,"acute GVHD; BDP >90% adherent, number 50",15.4 mg
same,"BDP >90% adherent group requiring systemic treatment for acute GVHD before day 90, N (%)","acute GVHD; BDP N = 50, >90% adherent",27 (54) N (%)
same,"Systemic treatment for acute GVHD before day 90, N (%) PRIMARY ENDPOINT","acute GVHD; BDP N = 92, Table 5",62 (67) N (%)
same,"Gastrointestinal GVHD proven by biopsy, events",acute GVHD; BDP arm,44
same,"Secondary systemic treatment for GVHD, events",acute GVHD; BDP arm,8
same,"Topical treatment for acute GVHD, events",acute GVHD; BDP arm,58
same,Average weekly gut morbidity score (SD),acute GVHD; BDP arm N = 92,0.63 (0.36)
same,Average weekly gut morbidity score after day 21 (SD),acute GVHD; BDP arm N = 92,0.47 (0.48)
same,Average weekly liver morbidity score (SD),acute GVHD; BDP arm N = 92,0.11 (0.31)
same,"Average weekly overall morbidity score, mean (SD)",acute GVHD; BDP arm N = 92,1.22 (0.53)
same,Average weekly skin morbidity score (SD),acute GVHD; BDP arm N = 92,0.30 (0.42)
same,"Peak GVHD grade 0-1, N (%)",acute GVHD; BDP arm N = 92,31 (34) N (%)
same,"Peak GVHD grade IIa, N (%)",acute GVHD; BDP arm N = 92,41 (45) N (%)
same,"Peak GVHD grade IIb-IV, N (%)",acute GVHD; BDP arm N = 92,20 (22) N (%)
same,"Peak overall morbidity score, mean (SD)",acute GVHD; BDP arm N = 92,2.54 (0.62)
same,"Systemic treatment for acute GVHD before day 90, N (%)","acute GVHD; BDP arm N = 92, Table 2",60 (65) N (%)
same,"Cumulative mg/kg prednisone-equivalent systemic glucocorticoid dose to day 75, mean (SD)","acute GVHD; BDP arm N = 92, for GVHD, not including steroid treatment for other indications",33.1 (23.3) mg/kg
same,"Systemic treatment for acute GVHD, HR","acute GVHD; BDP arm compared to placebo arm, 95% CI 0.6-1.4",0.92
same,Participants given systemic glucocorticoid treatment for GVHD,"acute GVHD; BDP arm, 60 participants",65%
same,Grades IIb-III GVHD,"acute GVHD; BDP arm, peak OMI scores >20, seven of 36 participants",19%
same,Grades IIb-III GVHD,"acute GVHD; BDP arm, peak OMI scores ≦20, nine of 43 participants",21%
same,Cumulative incidence of grades III-IV GVHD,"acute GVHD; BDP arm, 95% CI 1%-12%",7%
same,"Systemic treatment for acute GVHD, events","acute GVHD; BDP arm, withdrawal or recurrent malignancy as competing event",61
same,Incidence of relapse,acute GVHD; [4],18%
same,Overall mortality,acute GVHD; [4],14%
same,"Secondary systemic treatment for GVHD, HR","acute GVHD; BDP vs placebo, 95% CI 0.2-1.9",0.65
same,"Topical treatment for acute GVHD, HR","acute GVHD; BDP vs placebo, 95% CI 0.6-1.4",0.89
same,"Gastrointestinal GVHD proven by biopsy, HR","acute GVHD; BDP vs placebo, 95% CI 0.7-2.2",1.26
same,Cumulative incidence of grades IIb-IV GVHD,"acute GVHD; day 100 after transplantation, BDP arm, 95% CI 13%-30%",22%
same,Cumulative incidence of grades IIa-IV GVHD,"acute GVHD; day 100 after transplantation, BDP arm, 95% CI 57%-76%",66%
same,Protein binding,[1],protein-bound
same,"Death from any cause, events",[2]; BDP arm,22
same,"Death or recurrent malignancy, events",[2]; BDP arm,29
same,"Death without recurrent malignancy, events",[2]; BDP arm,10
same,"Death without recurrent malignancy, HR","[2]; BDP vs placebo, 95% CI 0.4-5.8",1.60
same,"Death or recurrent malignancy, HR","[2]; BDP vs placebo, 95% CI 0.5-1.7",0.93
same,"Death from any cause, HR","[2]; BDP vs placebo, 95% CI 0.5-2.0",0.95
same,Participants with Enterococcus bacteremia episodes among those who received total body irradiation,"[2]; BDP, of the 61 participants (both arms) with total body irradiation",9
same,Participants with Enterococcus bacteremia episodes among those who received busulfan and cyclophosphamide,"[2]; BDP, of the 77 participants (both arms)",1
same,"CMV viremia or disease, HR","[2]; human, in vivo",0.93
same,"CMV viremia or disease, events","[2]; human, in vivo",23
same,"Chronic GVHD requiring systemic treatment, HR","[2]; human, in vivo",1.05
same,"Chronic GVHD requiring systemic treatment, events","[2]; human, in vivo",31
same,"Colitis, N (%)","[2]; human, in vivo",0 (0) N (%)
same,"Enteritis, N (%)","[2]; human, in vivo",0 (0) N (%)
same,Episodes of Enterococcus bacteremia,"[2]; human, in vivo",12 episodes
same,Episodes of Enterococcus bacteremia after day 57,"[2]; human, in vivo",3 episodes
same,Episodes of Enterococcus bacteremia before day 17 after transplantation,"[2]; human, in vivo",9 episodes
same,Episodes of gram-negative bacteremia,"[2]; human, in vivo",15 episodes
same,"Esophagitis, N (%)","[2]; human, in vivo",8 (9) N (%)
same,"GI hemorrhage, N (%)","[2]; human, in vivo",2 (2) N (%)
same,"GI infection (any), N (%)","[2]; human, in vivo",22 (24) N (%)
same,"GI infection: C. difficile, N (%)","[2]; human, in vivo",16 (17) N (%)
same,"GI infection: CMV enteritis, N (%)","[2]; human, in vivo",2 (2) N (%)
same,"GI infection: Other viral infection, N (%)","[2]; human, in vivo",2 (2) N (%)
same,"GI infection: Other, N (%)","[2]; human, in vivo",3 (3) N (%)
same,"GI infection: Yeast or mold, N (%)","[2]; human, in vivo",0 (0) N (%)
same,"GI ulceration or erosion, N (%)","[2]; human, in vivo",5 (5) N (%)
same,"Gastritis, N (%)","[2]; human, in vivo",2 (2) N (%)
same,Gastrointestinal ulceration or erosion diagnosed by endoscopy,"[2]; human, in vivo",5 participants
same,"Ileus, N (%)","[2]; human, in vivo",1 (0) N (%)
same,"Invasive yeast or mold infection, HR","[2]; human, in vivo",0.50
same,"Invasive yeast or mold infection, events","[2]; human, in vivo",1
same,Number of serious adverse events related to bacteremia,"[2]; human, in vivo",14
same,Number of serious adverse events related to mucositis,"[2]; human, in vivo",5
same,Participants diagnosed with gastrointestinal infection,"[2]; human, in vivo",24%
same,"Recurrent malignancy, HR","[2]; human, in vivo",0.77
same,"Recurrent malignancy, events","[2]; human, in vivo",19
same,"Typhlitis, N (%)","[2]; human, in vivo",1 (1) N (%)
same,"Oral infection, N (%)","[2]; human, in vivo, po",3 (3) N (%)
same,Participants with Enterococcus bacteremia,"[2]; of the 92 participants in the BDP arm, before day 103",10 participants
same,Efficacy for treatment of gastrointestinal GVHD in two previous randomized trials,gastrointestinal GVHD,more effective than prednisone alone; also recorded: effective
